Measurements published in patent publication US7507792B2, “MDA-7 proteins and methods of use thereof” (The Trustees of Columbia University In The City of New York, priority 1993, dated 2009).
“Also recorded” adds a separate entry of the source.

Legend:
[1] = system: mda-6 (WAF1/CIP1/SDI1); assay type: cell-based, human; details: HL-525; TPA 3 nM, Vit D3 400 nM, RA 1 μM; 1 to 12 h test period
Procedure: (§1) HL-60 cells were originally provided by Dr. R. C. Gallo (National Cancer Institute, Bethesda, Md.) (Collins et al., 1978; Huberman & Callaham, 1979). HL-60 cells designated HL-525 were derived by cloning HL-60 cells after subculturing 102 times in the presence of increasing concentrations (up to 3 μM) of TPA at 5- to 8-day intervals (Homma et al., 1986; Mitchell et al., 1986). […] Prior to the experiments described in this study, the HL-525 cells were subcultured more than 20 times in the absence of TPA. Cells were grown in 100-mm tissue culture dishes in RPMI 1640 medium supplemented with 20% fetal bovine serum, penicillin (100 units/ml) and streptomycin (100 μg/ml) (Grand Island Biological Co., NY) at 37° C. in an atmosphere of 5% CO2 in air in a humidified incubator. The 1,25-(OH)2D3(Vit D3) and TPA were dissolved in a final concentration of 0.01% DMSO, and all-trans retinoic acid (RA) was dissolved in 0.1% DMSO in culture medium. […] Control cultures were treated with DMSO at a final concentration of 0.1% in culture medium. For experiments designed to test the effect of DMSO on HL-60 and HL-525 cells, DMSO was added to tissue culture medium at a final concentration of 1%. Stock solutions of CHX (10 mg/ml) were prepared in culture medium. CHX was added at a final concentration of 10 μg/ml. To examine a requirement for protein synthesis on mda-6 gene expression, HL-60 or HL-525 cells were seeded into 150 mm Petri dishes (5×10^5 cells/ml) in 30 ml of medium. CHX was added to a final concentration of 10 μg/ml 15 min prior to the addition of TPA to 3 nM. Cells were harvested at various times after addition of TPA for subsequent RNA isolation and analysis.
RNA was purified by centrifugation through a CsC1 cushion as described by Chirgwin et al. (1979). Ten μg of RNA was denatured with glyoxal/DMSO, electrophoresed on 1.0% agarose gels, transferred to nylon membranes, hybridized to a ^32P-labeled mda-6 probe (Jiang and Fisher, 1993) and then after stripping the membrane hybridized to a ^32P-labeled rat GAPDH probe (Fort et al., 1985), as described previously (Reddy et at., 1991; Su et al., 1991; Jiang et al., 1992). Following hybridization, the filters were washed and exposed for autoradiography (Reddy et al., 1991; Su et al., 1991; Jiang et al., 1992). mda-6 and GAPDH gene expression were also determined by reverse transcription-polymerase chain reaction (RT-PCR) as described (Adollahi et al. 1991; Lin et al., 1994). Total cytoplasmic RNA was treated with 0.5 units DNase (Boehringer-Mannheim Biochemicals)/μg RNA in 15% glycerol, 10 mM Tris, pH 7.5, 2.5 mM MgCl2, 0.1 mM EDTA, 80 mM KC1, 1 mM CaCl2 and 1 unit/ml RNasin (Promega) at 30° C. for 10 min. RNA was extracted with phenol-chloroform, precipitated with sodium acetate/ethanol and RNA pellets were resuspended in diethylpyrocarbonate-treated H2O. One μg of total RNA was reverse transcribed with 200 units of murine leukemia virus reverse transcriptase (Bethesda Research Laboratories) in 20 μl containing 1 mM deoxyribonucleotide triphosphates, 4 mM MgCl2, 10 mM Tris, pH 8.3, 50 mM KC1, 0.001% gelatin and 0.2 μg oligo-dT primer. Samples were diluted to 100 μl with buffer containing 0.2 mM deoxyribonucleotide triphosphates, 2 mM MgCl2, 10 mM Tris, pH 8.3, 50 mM KC1 and 0.001% gelatin. […]

[2] = system: HL-525 cells; assay: OKM1 reactivity (immunofluorescence); assay type: cell-based, human; details: TPA 3 nM, RA 1 μM or Vit D3 400 nM, percent OKM1 positive cells
Procedure: as §1
(§2) Cell counts were determined by hemocytometer chamber counting. Immunofluorescence tests for reactivity with the OKM1 antibody (Ortho Pharmaceutical Corp., Raritan, N.J.) were performed as previously described (Murao et al., 1983).

[3] = system: HL-60 cells; assay: OKM1 reactivity (immunofluorescence); assay type: cell-based, human; details: TPA 3 nM, RA 1 μM or Vit D3 400 nM, percent OKM1 positive cells
Procedure: as §1, §2

[4] = system: mda-9; assay: mda-9 expression (Northern blotting); assay type: cell-based, human; details: H0-1; 96 hours; doses of FIG. 15 legend
Procedure: (§3) The mass excision of the library was performed using ExAssist helper phage as described above. The SOLR strain of Escherichia coli and cDNA phagemids were mixed at 37° C. for 15 min and plated onto LB plates containing ampicillin and IPTG/X-gal. White colonies were chosen at random, isolated and grown in LB medium. Plasmid minireps and restriction enzyme digestions were performed to confirm the presence of inserts. The inserts were isolated and used as robes for Northern blotting analysis (5,25). […] Radiolabeled probes were generated by random oligonucleotide priming (25). Prehybridization, hybridization, posthybridization washes, and autoradiography were performed as described (5,18,25).

[5] = system: mda-6; assay: mda-6 expression (Northern blotting); assay type: cell-based, human; details: H0-1; 96 hours; doses of FIG. 15 legend
Procedure: as §3
Total cytoplasmic RNA was isolated and Northern blotting hybridization was performed as described (Reddy et al., 1991; Su et al., 1991; Jiang et al., 1992). Ten μg of RNA was denatured with glyoxal/DMSO, electrophoresed on 1.0% agarose gels, transferred to nylon membranes and hybridized to a ^32P-labeled p53 probe (Baker et al., 1990). The nylon membrane was stripped and hybridized to a ^32P-labeled mda-6 probe (Jiang and Fisher, 1993) and then after a second stripping the membrane was hybridized to a ^32P-labeled rat GAPDH probe (Fort et al., 1985), as described previously (Reddy et al., 1991; Su et al., 1991; Jiang et al., 1992). Following hybridization, the filters were washed and exposed for autoradiography (Reddy et al., 1991; Su et al., 1991; Jiang et al., 1992). mda-6 and GAPDH gene expression were also determined by reverse transcription-polymerase chain reaction (RT-PCR) as described (Adollahi et al., 1991; Lin et al., 1994; Jiang et al., 1994b). Total cytoplasmic RNA was treated with 0.5 units DNase (Boehringer-Mannheim Biochemicals)/μg RNA in 15% glycerol, 10 mM Tris, pH 7.5, 2.5 mM MgCl2, 0.1 mM EDTA, 80 mM KCl, 1 mM CaCl2 and 1 unit/ml RNasin (Promega) at 30° C. for 10 min. RNA was extracted with phenol-chloroform, precipitated with sodium acetate/ethanol and RNA pellets were resuspended in diethylpyrocarbonate-treated H2O. One μg of total RNA was reverse transcribed with 200 units of murine leukemia virus reverse transcriptase (Bethesda Research Laboratories) in 20 μl containing 1 mM deoxyribonucleotide triphosphates, 4 mM MgCl2, 10 mM Tris, pH 8.3, 50 mM KCl, 0.001% gelatin and 0.2 μg oligo-dT primer. Samples were adjusted to 100 μl with buffer containing 0.2 mM deoxyribonucleotide triphosphates, 2 mM MgCl2, 10 mM Tris, pH 8.3, 50 mM KCl and 0.001% gelatin. Fifty pmol of each primer, 1.5 units Taq DNA polymerase (Perkin-Elmer Cetus) were added and samples were covered with mineral oil, heated at 95° C. for 5 min and subjected to 25 cycles of PCR in a Perkin-Elmer Thermal Cycler using 1 min denaturation at 94° C., 2 min annealing at 55° C. and 3 min polymerization at 72° C. After extraction with chloroform, 20 μl of products were electrophoresed, blotted onto nylon filters and hybridized with an mda-6 or GAPDH specific probe. The mda-6 primers were 5′ to 3′ […] (SEQ ID NO:26) and […] (SEQ ID NO:27)(corresponding to nt 1527 to 1546) (GenBank accession number U09579); and the GAPDH primers were 5′ to 3′ […] (SEQ ID NO:28)and […] (SEQ ID NO:29)(corresponding to nt 1070 to 1053) (Tokunaga et al., 1987).

[6] = system: mda-4; assay: mda-4 expression (Northern blotting); assay type: cell-based, human; details: H0-1; 96 hours; doses of FIG. 15 legend
Procedure: as §3

[7] = system: H0-1 cells; assay: Northern blotting analysis of steady-state mRNA levels; assay type: cell-based, human; details: FIG. 1 concentrations
Procedure: Steady-state levels of specific mRNAs were determined by Northern blotting analysis of total RNA probed with appropriate ^32P-labeled gene probes as described previously (14-16). RNAs were analyzed from cells treated with inducer for 24 hours, treated for 24 hours with inducer followed by growth for 72 hours in the absence of inducer, or treated continuously for 96 hours with the inducer. The concentration of inducing compounds used were the same as those used for growth studies. The effect of conditioned medium on gene expression changes was determined by treating H0-1 cells for 24 hours with a 1:2 dilution of conditioned medium (equal volumes of conditioned medium and DMEM supplemented with 10% fetal bovine serum (DMEM-10) or for 96 hours with a 1:4 dilution of conditioned medium (1 vol. of conditioned medium to 3 vol. of DMEM-10). The probes used in the present study were specific for β-actin (17), γ-actin (17), c-jun (18), c-myc (19), fibronectin (20), gro/MGSA (21), HLA Class I antigen (22), HLA Class II antigen (HLA-DRβ) (22), α5 integrin (23), β1 integrin (24), ISG-15 (25), ISG-54 (25), jun-B (26), and tenascin (27). Northern blots were also probed with a ^32P-labeled GAPDH gene (15) to verify similar mRNA expression under the various experimental conditions. Following hybridization, the filters were washed and exposed for autoradiography.

[8] = system: mda-5; assay: mda-5 expression (Northern blotting); assay type: cell-based, human; details: H0-1; 96 hours; doses of FIG. 15 legend
Procedure: as §3

[9] = system: H0-1 human melanoma cell line; assay: 96-h growth suppression (cell number by Coulter Counter); assay type: cell-based; details: Table 2; H0-1 cells; degree of initial 96 hr growth suppression versus untreated control
Procedure: FIG. 1A-B Effect of continuous exposure to various growth and differentiation modulating agents on the 96-h growth of the human melanoma cell line, H0-1. Cells were seeded at 5×10^4/35-mm tissue culture plate and 24 h later the medium was changed with the indicated compounds. Cell numbers were determined by Coulter Counter after 96-h growth. Further details can be found in Materials and Methods.
The H0-1 cell line is a melanotic melanoma derived from a person and was used between passage 100 and 125 (6,8,13). H0-1 cells were kindly provided by Dr. Beppino C. Giovanella, Stehlin Foundation for Cancer Research, Houston, Tex. Cultures were grown at 37° C. in a 95% air 5% CO2-humidified incubator in Dulbecco's modified Eagle's medium (DMEM) supplemented with 10% fetal bovine serum (DMEM-10) (Hyclone, Logan, Utah). H0-1 cells were maintained in the logarithmic stage of growth by subculturing (1:5 or 1:10) prior to confluency approximately every 4 to 5 days. […] Total cell numbers were determined after days 4, 7, 14, and 21, using a ZM Coulter Counter, and viable cell numbers were determined by trypan blue dye exclusion (6). […] Increases in cell number (two or more population doublings) after removal of the inducing agent(s) was considered reversible growth suppression. […] Conditioned medium was collected from treated cultures, contaminating cells were removed by centrifugation at 1000 rpm/10 min., and conditioned medium was stored at 4° C. until assayed for gene modulatory activity. Control conditioned medium was obtained as experimental conditioned medium from cells receiving only a medium change 24 hours after plating in the absence of test compound(s) and growth for 72 hours in DMEM-10.

[10] = system: mda-7; assay: mda-7 expression (Northern blotting, RT-PCR); assay type: cell-based, human; details: H0-1; 96 hours; doses of FIG. 15 legend
Procedure: as §3

[11] = system: mda-8; assay: mda-8 expression (Northern blotting); assay type: cell-based, human; details: H0-1; 96 hours; doses of FIG. 15 legend
Procedure: as §3

Compound	time of treatment at which mda-6 expression is induced [1] [h]	OKM1 reactivity, Days of induction 4 [2] [%]	OKM1 reactivity, Days of induction 6 [2] [%]	OKM1 reactivity, Days of induction 4 [3] [%]	OKM1 reactivity, Days of induction 6 [3] [%]	mda-9 expression [4]	mda-6 expression [5]	mda-4 expression [6]	HLA Class I antigen gene expression ([7]; 96 h)	HLA Class II antigen gene (HLA-DRβ) expression ([7]; 96 h)	fibronectin expression ([7]; 96 h)	induction of gro/MGSA gene expression ([7]; 96 h)	tenascin expression ([7]; 96 h)	β1 integrin expression ([7]; 96 h)	c-jun and jun-B expression ([7]; 96 hours)	c-myc expression ([7]; 96 hours)	mda-5 expression [8]	Growth Suppression (reversible) [9]	mda-7 expression [10]	mda-8 expression [11]
C=C1/C(=C\C=C2/CCC[C@]3(C)[C@@H]([C@H](C)CCCC(C)(C)O)CC[C@@H]23)C[C@@H](O)C[C@@H]1O [Vit D3, 1,25-(OH)2D3]	≤ 2	84	80	88	95															
IFN-γ: Recombinant human immune interferon						No change in mda-9 expression	no significant or reduced alteration in expression	Increased expression	enhanced HLA Class I antigen expression	enhanced expression	most effective single agents	did not induce gro/MGSA expression	enhanced tenascin expression	upregulation	increase	increased c-myc expression	Enhanced expression; also recorded: induced	2+ (2+ = ~40% reduction in growth in comparison with untreated control cultures)	No induction in mda-7 expression; also recorded: does not result in significant mda-7 expression	enhanced mda-8 expression; also recorded: increased mda-8 expression
